Structures can show the parent of a compound that is named as a salt.
Each compound was assayed against T1, human NaV1.7 (Homo sapiens, UniProt Q15858) (assay: Patch voltage clamp electrophysiology assay (EP), NaV1.7). Details: HEK-293 cells stably expressing NaV1.7 with β1 subunit; whole-cell patch clamp, membrane potential −60 mV (inactivated state).
T1 construct: permanently transfected with an expression vector containing the full-length cDNA coding for the desired human sodium channel α-subunit; expressed in transfected cells; host or cells: HEK-293
Format: cell-based
Protocol: The following patch voltage clamp electrophysiology studies were performed on representative compounds of the invention using human embryonic kidney cells (HEK), permanently transfected with an expression vector containing the full-length cDNA coding for the desired human sodium channel α-subunit, grown in culture media containing 10% FBS, 1% PSG, and 0.5 mg/mL G418 at 37° C. with 5% CO2. […] NaV1.7 and NaV1.5 cDNAs (NM_002977 and AC137587; SCN5A, respectively) were stably expressed in HEK-293 cells. The β1 subunit was coexpressed in both the NaV1.7 and NaV1.5 cell lines.
Sodium currents were measured using the patch clamp technique in the whole-cell configuration using either a PatchXpress automated voltage clamp or manually using an Axopatch 200B (Axon Instruments) or Model 2400 (A-M systems) amplifier. The manual voltage clamp protocol was as follows: Borosilicate glass micropipettes were fire-polished to a tip diameter yielding a resistance of 2-4 Mohms in the working solutions. The pipette was filled with a solution comprised of: 5 mM NaCl, 10 mM CsCl, 120 mM CsF, 0.1 mM CaCl2, 2 mM MgCl2, 10 mM HEPES, 10 mM EGTA; and adjusted to pH 7.2 with CsOH. The external solution had the following composition: 140 mM NaCl, 5 mM KCl, 2 mM CaCl2, 1 mM MgCl2, 10 mM HEPES; and adjusted to pH 7.4 with NaOH. In some studies, the external sodium was reduced by equimolar replacement with choline. Osmolarity in the CsF internal and NaCl external solutions was adjusted to 300 mOsm/kg and 310 mOsm/kg with glucose, respectively. All recordings were performed at ambient temperature in a bath chamber with a volume of 150 μL. Control sodium currents were measured in 0.5% DMSO. Controls and representative compounds of the invention were applied to the recording chamber through a 4-pinch or 8-pinch valve bath perfusion system manufactured by ALA Scientific Instruments.
Series resistance compensation was applied (60-80%). […] All statistics in this study are given as mean±SD.
The membrane potential was maintained at a voltage where inactivation of the channel is complete (which was −60 mV for both NaV1.7 and NaV1.5). The voltage is then stepped back to a very negative (Vhold=[…]) voltage for 20 ms and then a test pulse is applied to quantify the compound block. […] The percent decrease in sodium current following wash-on of compound was taken as the percent block of sodium channels.

T1 sequence (Q15858 1-1977 isoform Q15858-3): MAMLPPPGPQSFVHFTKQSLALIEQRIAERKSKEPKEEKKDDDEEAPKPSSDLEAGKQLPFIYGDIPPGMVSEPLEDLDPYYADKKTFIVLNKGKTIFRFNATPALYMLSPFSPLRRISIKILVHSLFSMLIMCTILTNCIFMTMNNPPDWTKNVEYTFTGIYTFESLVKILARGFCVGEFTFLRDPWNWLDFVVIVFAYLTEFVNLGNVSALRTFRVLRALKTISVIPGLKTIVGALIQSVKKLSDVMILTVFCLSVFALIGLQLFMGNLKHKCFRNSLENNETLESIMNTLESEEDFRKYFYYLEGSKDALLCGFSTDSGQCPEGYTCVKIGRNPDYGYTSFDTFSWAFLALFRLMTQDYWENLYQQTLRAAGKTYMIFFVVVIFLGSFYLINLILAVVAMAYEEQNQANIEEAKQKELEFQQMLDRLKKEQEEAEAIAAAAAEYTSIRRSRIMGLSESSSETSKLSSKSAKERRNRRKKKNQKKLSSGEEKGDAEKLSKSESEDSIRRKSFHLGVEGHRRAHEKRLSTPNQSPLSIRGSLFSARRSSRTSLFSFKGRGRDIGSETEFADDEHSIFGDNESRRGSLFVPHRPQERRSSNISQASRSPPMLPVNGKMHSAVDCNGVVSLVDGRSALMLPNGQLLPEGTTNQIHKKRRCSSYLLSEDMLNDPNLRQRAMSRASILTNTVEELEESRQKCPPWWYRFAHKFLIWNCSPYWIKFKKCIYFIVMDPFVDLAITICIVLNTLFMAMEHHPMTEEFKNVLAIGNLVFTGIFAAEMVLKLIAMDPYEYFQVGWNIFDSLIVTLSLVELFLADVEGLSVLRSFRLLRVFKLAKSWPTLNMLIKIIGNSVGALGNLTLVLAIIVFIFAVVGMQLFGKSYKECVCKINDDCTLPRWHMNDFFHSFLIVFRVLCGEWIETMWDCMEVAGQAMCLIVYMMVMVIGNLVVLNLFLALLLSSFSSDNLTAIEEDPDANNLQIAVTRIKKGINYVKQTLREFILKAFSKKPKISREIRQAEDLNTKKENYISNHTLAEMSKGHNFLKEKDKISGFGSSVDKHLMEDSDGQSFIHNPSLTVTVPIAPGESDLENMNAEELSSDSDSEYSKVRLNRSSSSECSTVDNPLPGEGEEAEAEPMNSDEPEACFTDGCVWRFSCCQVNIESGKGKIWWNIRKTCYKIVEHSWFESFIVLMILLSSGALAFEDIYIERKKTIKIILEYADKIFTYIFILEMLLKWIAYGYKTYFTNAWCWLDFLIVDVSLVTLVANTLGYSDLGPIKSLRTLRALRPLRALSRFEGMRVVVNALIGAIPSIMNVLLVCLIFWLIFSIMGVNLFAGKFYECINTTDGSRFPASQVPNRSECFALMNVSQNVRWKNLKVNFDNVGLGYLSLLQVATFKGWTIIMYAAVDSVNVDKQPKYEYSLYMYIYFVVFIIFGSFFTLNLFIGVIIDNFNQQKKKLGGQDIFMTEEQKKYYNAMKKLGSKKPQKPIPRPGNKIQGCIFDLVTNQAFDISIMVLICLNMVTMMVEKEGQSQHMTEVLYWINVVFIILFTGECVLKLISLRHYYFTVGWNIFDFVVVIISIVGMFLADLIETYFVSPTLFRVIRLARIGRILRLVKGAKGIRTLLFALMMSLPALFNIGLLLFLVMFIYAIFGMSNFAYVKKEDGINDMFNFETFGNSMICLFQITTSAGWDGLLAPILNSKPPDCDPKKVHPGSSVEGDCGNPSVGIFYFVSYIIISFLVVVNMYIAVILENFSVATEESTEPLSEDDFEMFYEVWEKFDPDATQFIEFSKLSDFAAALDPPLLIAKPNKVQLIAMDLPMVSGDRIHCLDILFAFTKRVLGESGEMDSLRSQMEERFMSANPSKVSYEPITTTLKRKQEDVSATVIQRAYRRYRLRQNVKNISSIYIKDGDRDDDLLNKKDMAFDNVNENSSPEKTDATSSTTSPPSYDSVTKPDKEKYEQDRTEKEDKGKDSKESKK
T1 sequence (Q07699 19-218 partner): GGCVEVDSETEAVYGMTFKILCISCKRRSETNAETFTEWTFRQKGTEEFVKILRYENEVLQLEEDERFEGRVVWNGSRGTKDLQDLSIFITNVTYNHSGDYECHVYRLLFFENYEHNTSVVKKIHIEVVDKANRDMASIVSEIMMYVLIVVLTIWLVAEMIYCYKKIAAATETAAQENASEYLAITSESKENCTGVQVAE

Structure (SMILES) | IC50 [nM]
O=C(O)[C@H]1C[C@@H](O)CN1C(=O)c1cc(C2CC2)c(OCC23CC4CC(CC(C4)C2)C3)cc1F [Example 47, (2R,4R)-1-[4-(1-adamantylmethoxy)-5-cyclopropyl-2-fluoro-benzoyl]-4-hydroxy-pyrrolidine-2-carboxylic acid] | 16000
O=C(O)[C@@H]1C[C@H](O)CN1C(=O)c1cc(C2CC2)c(OCC23CC4CC(CC(C4)C2)C3)cc1F [Example 46, (2S,4S)-1-[4-(1-adamantylmethoxy)-5-cyclopropyl-2-fluoro-benzoyl]-4-hydroxy-pyrrolidine-2-carboxylic acid] | 870

Other lines, results leading:

IC50 [nM] | Structure (SMILES)
1800 | O=C(O)[C@@H]1CCCN1C(=O)c1cc(C2CC2)c(OC2C3CC4CC2CC(Cl)(C4)C3)cc1F (single isomer, unassigned) [Example 82]
230 | O=C(O)[C@@H]1C[C@@H](F)CN1C(=O)c1cc(C2CC2)c(OCC23CC4CC(CC(C4)C2)C3)cc1F [Example 49, (2S,4R)-1-[4-(1-adamantylmethoxy)-5-cyclopropyl-2-fluoro-benzoyl]-4-fluoro-pyrrolidine-2-carboxylic acid]

The compounds below were run against T2, hNav1.7 (Homo sapiens, UniProt Q15858) (assay: Tritiated compound binding (LBA) to membranes from cells expressing hNav1.7 and the β1 subunit, competitive binding). Details: competitive binding vs 100 pM [3H]compound, 18 h, room temperature, membranes with hNav1.7 and β1 subunit.
T2 construct: expressed in transfected cells
Protocol: Tritiated Compound Binding to Membranes
Isolated from Cells that Heterologously Express hNav1.7 and the β1 Subunit
Preparation of membranes containing recombinantly expressed sodium channels: Frozen recombinant cell pellets were thawed on ice and diluted to 4 times the cell pellet weight with ice cold 50 mM Tris HCl, pH 7.4 buffer. The cell suspensions were homogenized on ice using a motorized glass dounce homogeniser. […] The supernatants were collected and centrifuged at 10000×g at 4° C. for 50 min. The pellets were then re-suspended in 100 mM NaCl, 20 mM Tris HCl, pH 7.4 buffer containing 1% v/v protease inhibitors (Calbiochem) and re-homogenized on ice. The homogenized membranes were then processed through a syringe equipped with a 26 gauge needle. Protein concentrations were determined by Bradford Assay and the membranes were stored at −80° C.
Saturation experiments. A representative compound of formula (I) having a methyl group was tritiated. Three tritiums were incorporated in place of methyl hydrogens to generate [^3H]compound. Binding of this radioligand was performed in 5 mL borosilicate glass test tubes at room temperature. Binding was initiated by adding membranes to increasing concentrations of [^3H]compound in 100 mM NaCl, 20 mM Tris HCl, pH 7.4 buffer containing 0.01% w/v bovine serum albumin (BSA) for 18 h. Non-specific binding was determined in the presence of 1 μM unlabeled compound. After 18 h, the reactants were filtered through GF/C glass fiber filters presoaked in 0.5% w/v polyethylene imine. […] [^3H]compound bound to filters was quantified by liquid scintillation counting.
Binding reactions were performed in 96-well polypropylene plates at room temperature for 18 h. In 360 μL, membranes were incubated with 100 pM [^3H]compound and increasing concentrations of Test Compound. Non-specific binding was defined in the presence of 1 μM unlabeled compound. Reactions were transferred and filtered through 96-well glass fiber/C filter plates presoaked with 0.5% polyethylene imine. […] Bound radioactivity was determined by liquid scintillation counting.
Data Analysis: For saturation experiments, non-specific binding was subtracted from total binding to provide specific binding and these values were recalculated in terms of pmol ligand bound per mg protein. Saturation curves were constructed and dissociation constants were calculated using the single site ligand binding model: Beq=(Bmax*X)/(X+Kd), where Beq is the amount of ligand bound at equilibrium, Bmax is the maximum receptor density, Kd is the dissociation constant for the ligand, and X is the free ligand concentration. For competition studies percent inhibition was determined and IC50 values were calculated using a 4 parameter logistic model (% inhibition=(A+((B−A)/(1+((x/C)^D)))) using XLfit, where A and B are the maximal and minimum inhibition respectively, C is the IC50 concentration and D is the (Hill) slope.

T2 sequence (Q15858 1-1977 isoform Q15858-3): as the sequence (Q15858 1-1977 isoform Q15858-3) above
T2 sequence (Q07699 19-218 partner): as the sequence (Q07699 19-218 partner) above

Structure (SMILES) | IC50 [nM]
O=C(O)[C@H]1C[C@@H](O)CN1C(=O)c1cc(C2CC2)c(OCC23CC4CC(CC(C4)C2)C3)cc1F [Example 47, (2R,4R)-1-[4-(1-adamantylmethoxy)-5-cyclopropyl-2-fluoro-benzoyl]-4-hydroxy-pyrrolidine-2-carboxylic acid] | ≥ 10000
O=C(O)[C@@H]1C[C@H](O)CN1C(=O)c1cc(C2CC2)c(OCC23CC4CC(CC(C4)C2)C3)cc1F [Example 46, (2S,4S)-1-[4-(1-adamantylmethoxy)-5-cyclopropyl-2-fluoro-benzoyl]-4-hydroxy-pyrrolidine-2-carboxylic acid] | 150
O=C(O)[C@@H]1CCCN1C(=O)c1cc(F)c(Oc2ccc(Cl)cc2-c2ccccc2)cc1F [Example 22, (S)-1-(4-((5-chloro-[1,1′-biphenyl]-2-yl)oxy)-2,5-difluorobenzoyl)pyrrolidine-2-carboxylic acid] | > 10000
O=C(O)[C@@H]1CCCN1C(=O)c1cc(C2CC2)c(CN2CCO[C@H](Cc3cc(Cl)cc(Cl)c3)C2)cc1F [Example 5, (S)-1-(5-cyclopropyl-4-(((R)-2-(3,5-dichlorobenzyl)morpholino)methyl)-2-fluorobenzoyl)pyrrolidine-2-carboxylic acid trifluoroacetic acid salt] | 468
CC(C)(NC(=O)c1cc(C2CC2)c(OCC23CC4CC(CC(C4)C2)C3)cc1F)C(=O)O [Example 8, 2-(4-(adamantan-1-ylmethoxy)-5-cyclopropyl-2-fluorobenzamido)-2-methylpropanoic acid] | 1690
O=C(O)[C@@H]1CCCN1C(=O)c1cc(C2CC2)c(O[C@@H]2CCCN(Cc3ccc(F)cc3Cl)C2)cc1F [Example 38, (S)-1-(4-(((R)-1-(2-chloro-4-fluorobenzyl)piperidin-3-yl)oxy)-5-cyclopropyl-2-fluorobenzoyl)pyrrolidine-2-carboxylic acid trifluoroacetic acid salt] | 152
O=C(O)[C@@H]1CCCN1C(=O)c1cc(C2CC2)c(CN2[C@@H]3CC[C@H]2C[C@@H](Oc2cc(Cl)cc(OC(F)(F)F)c2)C3)cc1F [Example 19, (S)-1-(4-(((1R,3S,5S)-3-(3-chloro-5-(trifluoromethoxy)phenoxy)-8-azabicyclo[3.2.1]octan-8-yl)methyl)-5-cyclopropyl-2-fluorobenzoyl)pyrrolidine-2-carboxylic acid trifluoroacetic acid salt] | 443
O=C(O)[C@@H]1CCCN1C(=O)c1cc(C2CC2)c(OCC23CC4(F)CC(F)(CC(F)(C4)C2)C3)cc1F [Example 4, (5)-1-(5-cyclopropyl-2-fluoro-4-((3,5,7-trifluoroadamantan-1-yl)methoxy)benzoyl)pyrrolidine-2-carboxylic acid] | 817
C[C@@H](Oc1ccc(Cl)c(Cl)c1)c1cc(F)c(C(=O)N2CCC[C@H]2C(=O)O)cc1C1CC1 [Example 14, (S)-1-(5-cyclopropyl-4-((R)-1-(3,4-dichlorophenoxy)ethyl)-2-fluorobenzoyl)pyrrolidine-2-carboxylic acid] | 2370
O=C(O)[C@@H]1CCCN1C(=O)c1cc(C2CC2)c(OCC2CCN(C(c3ccccc3)c3cc(Cl)cc(Cl)c3)CC2)cc1F (stereo partly drawn) [Example 26, (2S)-1-(5-cyclopropyl-4-((1-((3,5-dichlorophenyl)(phenyl)methyl)piperidin-4-yl)methoxy)-2-fluorobenzoyl)pyrrolidine-2-carboxylic acid trifluoroacetic acid salt] | 18.1
N#CC1(COc2cc(F)c(C(=O)N3CCC[C@H]3C(=O)O)cc2C2CC2)C2CC3CC(C2)CC1C3 (stereo partly drawn) [Example 32, (S)-1-(4-(((1S,3S,5S,7S)-2-cyanoadamantan-2-yl)methoxy)-5-cyclopropyl-2-fluorobenzoyl)pyrrolidine-2-carboxylic acid] | 1540
O=C(O)[C@@H]1CCCN1C(=O)c1cc(C2CC2)c(OCC2CCN(Cc3nc(-c4ccccc4Cl)no3)CC2)cc1F [Example 29, (S)-1-(4-((1-((3-(2-chlorophenyl)-1,2,4-oxadiazol-5-yl)methyl)piperidin-4-yl)methoxy)-5-cyclopropyl-2-fluorobenzoyl)pyrrolidine-2-carboxylic acid trifluoroacetic acid salt] | 629

Results, then the compound that gave them:

IC50 [nM] | Structure (SMILES)
1100 | O=C(O)[C@@H]1CCCN1C(=O)c1cc(C2CC2)c(OC2C3CC4CC2CC(Cl)(C4)C3)cc1F (single isomer, unassigned) [Example 82]
10 | O=C(O)[C@@H]1C[C@@H](F)CN1C(=O)c1cc(C2CC2)c(OCC23CC4CC(CC(C4)C2)C3)cc1F [Example 49, (2S,4R)-1-[4-(1-adamantylmethoxy)-5-cyclopropyl-2-fluoro-benzoyl]-4-fluoro-pyrrolidine-2-carboxylic acid]
≥ 10000 | O=C(O)[C@@H]1CCCN1C(=O)c1cc(Cl)c(OC[C@@H]2C[C@@H]3[C@H](C2)C3(F)F)cc1F [Example 44]
39.8 | CC1(C)CCCC(COc2cc(F)c(C(=O)N3CCC[C@H]3C(=O)O)cc2C2CC2)C1 (stereo partly drawn) [Example 16, (2S)-1-(5-cyclopropyl-4-((3,3-dimethylcyclohexyl)methoxy)-2-fluorobenzoyl)pyrrolidine-2-carboxylic acid]
5230 | O=C(O)[C@@H]1CCCN1C(=O)c1cc(Cl)c(Oc2ccc(OC(F)(F)F)c(Cl)c2)cc1F [Example 37, (S)-1-(5-chloro-4-(3-chloro-4-(trifluoromethoxy)phenoxy)-2-fluorobenzoyl)-pyrrolidine-2-carboxylic acid]
984 | CC1(COc2cc(F)c(C(=O)N3CCC[C@H]3C(=O)O)cc2C2CC2)CCC(F)(F)CC1 [Example 12, (S)-1-(5-cyclopropyl-4-((4,4-difluoro-1-methylcyclohexyl)methoxy)-2-fluorobenzoyl)pyrrolidine-2-carboxylic acid]
4500 | O=C(O)[C@@H]1CCCN1C(=O)c1cc(C2CC2)c(O[C@H]2C3CC4CC2C[C@](F)(C4)C3)cc1F [Example 18, (S)-1-(5-cyclopropyl-2-fluoro-4-(((1R,2s,3S,5R,7R)-5-fluoroadamantan-2-yl)oxy)benzoyl)pyrrolidine-2-carboxylic acid]
345 | O=C(O)[C@@H]1CCCN1C(=O)c1cc(Cl)c(COc2ccc(OC(F)(F)F)c(Cl)c2)cc1F [Example 30, (S)-1-(5-chloro-4-((3-chloro-4-(trifluoromethoxy)phenoxy)methyl)-2-fluorobenzoyl)pyrrolidine-2-carboxylic acid]

Source: patent publication US10125098B2, “Therapeutic compounds and methods of use thereof” (GENENTECH, INC., priority 2014, dated 2018)
